Measured values published in paper PMC6049614 (Chemical Communications (Cambridge, England), 2018).
Where a SMILES comes first, the peptide text is derived from it. Bridges are numbered along the chain shown (N, C = ends). [ ]: non-standard residue; d: D form. The star is where a group is joined. X1 = O=C(O)CN1CCN(CC(=O)O)CCN(Cc2ccc(CC(=O)*)cc2)CC1; Mpa = O=C(O)CCS

How the values were obtained:
[1] = design: method as in PMID 693485; details: following i.v. injection; cited from earlier work
[2] = physchem; assay type: physicochemical; details: pH 7.4
Experimental: (§1) To justify use of [Al^18F]NODA-dLVT in vivo, tracer lipophilicity and specific binding were determined through a standard shake flask assay and rat brain autoradiography, respectively. A log D7.4 of –0.54 ± 0.1 was established for [Al^18F]NODA-dLVT indicating a hydrophilic profile and potential for low non-specific binding. To investigate the feasibility of [Al^18F]NODA-dLVT for nervous system imaging, tracer was incubated at a concentration of 3 nM, either alone or in the presence of excess OT (10 μM) with brain tissue cut in the sagittal plane to determine total vs. non-specific binding (Fig. 3). This enabled calculation of % specific binding of [Al^18F]NODA-dLVT to regions of brain tissue (ESI, ^† Section 4.2). [^18F]AlF-NODA-dLVT specifically bound regions known to express appreciable levels of OTR (Fig. 3),[23]–[26] including hippocampus (CA1: 53 ± 4%; subiculum, S: 60 ± 1%), central amygdala nucleus (ac: 56 ± 1%), olfactory systems (olfactory tubercle, Tu: 53 ± 5%; anterior olfactory nucleus, AO: 38 ± 2%), acumens nuclei (Acb: 43 ± 4%), and cortical regions (visual cortex, V1: 61 ± 4%; motor cortex, MC: 42 ± 4%).

[3] = target: T1, OTR in rat brain slices (Rattus norvegicus, UniProt P70536); experiment: Rat brain autoradiography, specific binding; details: 3 nM tracer, nonspecific with 10 μM OT, rat brain sagittal slices
T1 construct: from tissue; host or cells: sagittal brain sections of male Wistar rats
T1 sequence (P70536 1-388): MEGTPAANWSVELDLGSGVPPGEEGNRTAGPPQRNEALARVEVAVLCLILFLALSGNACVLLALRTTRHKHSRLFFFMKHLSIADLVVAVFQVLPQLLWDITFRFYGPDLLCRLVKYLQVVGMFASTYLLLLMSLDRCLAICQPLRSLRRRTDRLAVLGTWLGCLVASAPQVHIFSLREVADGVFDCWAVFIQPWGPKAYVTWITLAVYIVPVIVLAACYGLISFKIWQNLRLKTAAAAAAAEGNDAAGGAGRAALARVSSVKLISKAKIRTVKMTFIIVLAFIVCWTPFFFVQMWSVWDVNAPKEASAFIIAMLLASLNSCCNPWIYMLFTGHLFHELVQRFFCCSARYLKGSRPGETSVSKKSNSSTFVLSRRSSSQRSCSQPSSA
Experimental: as §1
Fig. 3 Specific binding profile of [^18F]AlF-NODA-dLVT. Radiograms of total (top; 3 nM [^18F]AlF-NODA-dLVT) and nonspecific binding (bottom; 3 nM [^18F]AlF-NODA-dLVT and 10 μM OT) of [^18F]AlF-NODA-dLVT to rat brain slices in the sagittal pane. Areas with high specific binding are indicated on the figure with arrow heads. Key: AO = anterior olfactory nucleus; CA1 = field CA1 of the hippocampus; Acb = accumbens nuclei; Tu = olfactory tubercle; VMH = ventromedial hypothalamic nuclei; MC = motor cortex; V1 = primary visual cortex; S = subiculum; ac = central amygdala nucleus; lo = lateral olfactory tract. […]
was 84 ± 2%. After 30 min 18F yields remained at 84 ± 3%.
4.1 Tissue Preparation for rat brain autoradiography
Male Wistar rats (250 g; n=3) were stunned then decapitated. Brains were rapidly removed, incubated in 20% sucrose solution for 2 h, and immediately frozen (-80 °C). Tissues were stored at -80 °C until required. Rat brains were sectioned in the sagittal plane (20 µm thickness; according to the atlas of Paxinos and Watson, 1998). Tissues were cut using a cryostat microtome (CM3050S, Leica, UK), and thaw-mounted onto glass microscope slides. Slides were stored at -80 °C until use.
4.2 Autoradiography Procedure
Tissue was thawed to room temperature, dried then washed with ice cold buffer (50 mM Tris, pH 7.4). Sections were air dried and incubated for 1 h at room temperature with [18F]AlF-NODA-dLVT (3 nM) in buffer (50 mM Tris pH 7.4, 10 mM MgCl2). For nonspecific binding, OT (10 µM) was co-incubated with [18F]AlF-NODA-dLVT (3 nM) over the duration of the experiment. After incubation, slides were washed with ice-cold buffer (2 min × 2), followed by a final wash in ice-cold distilled water (2 min). Slides were dried in a cool airstream then exposed to 18F sensitive phosphor screens (Amersham, UK) with [18F]AlF-NODA-dLVT standards in X-ray cassettes overnight. Phosphor screens were imaged using a Typhoon 8600 scanner (Molecular Dynamics) and images were analysed with OptiQuant 5.0 (Perkin Elmer) and FIJI. Values were converted to relative binding percentages using calibrated [18F]AlF-NODA-dLVT standards. Binding potential (BP) is defined as the binding of tracer in brain region/total activity incubated as determined by the standard. Specific binding in each region is calculated by comparing the total and non-specific BP by the equation: ((total BP – non-specific BP)/total BP) × 100.

[4] = in vivo; details: rat; for tissue uptake at 0.5 h / tissue uptake at 10 min: female, Wistar, in vivo, total radioactivity; for tissue uptake at 0.5 h: inhaled or intranasal
Experimental: To investigate the plausibility of i.n. administration for OT-like therapies, given the similar structure and hydrophilic profile between AlF-NODA-dLVT and OT, in vivo tissue distribution of [^18F]AlF-NODA-dLVT was determined following i.n. or i.v. administration. […]. Here, it is anticipated that both routes show independent kinetic and metabolic profiles and the extended apparent availability of OT following i.n. administration supports a longer timeframe for this study.[27],[28] Distribution was determined through gamma counting of radioactivity in isolated tissue. A large portion underwent excretion via kidneys (i.v. 4.6 ± 0.4%ID per g; i.n. 1.31 ± 0.7%ID per g) and urine (i.v. 2.5 ± 1.2%ID per g; i.n. 7.7 ± 2.2%ID per g), as expected from the hydrophilic character of the tracer, similar to previous results found with radiolabelled OT given i.v. (Fig. 4A).[29]
Fig. 4 Biodistribution of [^18F]AlF-NODA-dLVT in rat. […] Both are shown relative to blood levels following either i.n. (30 min) or i.v. (10 min) administration. Each data point corresponds to mean ± SD, n = 3.
All animal experiments were performed in accordance to the Animals (Scientific Procedures) Act 1986 and were approved by the King’s college London ethical review committee. The work was performed under PPL 70/8230 (Reza Rezavi). Adult female Wistar rats (220 ± 4.5 g) were group housed at 21 ± 1 °C in a 12 h light:dark cycle with ad libitum access to standard rat chow and water. [18F]AlF-NODA-dLVT was formulated in 0.9% saline to contain no more than 5% MeOH. Female Wistar rats received a dose of [18F]AlF-NODA-dLVT by tail vein injection (up to 650 μL in volume), or via nasal administration using a syringe with a plastic cannula attached to one nostril (25 μL per nare).
A 0.3 mL insulin syringe, containing a 29-gauge needle, was fitted with a PE10 cannula (15 mm). The cannula was fitted so that it covered approximately 3 mm of the needle tip.
Radioligand was added to the syringe and the activity measured before and after administration to calculate the injected dose (ID). Anesthesia was induced using a mixture of 5% isoflurane and oxygen (Animalcare, UK) at a flow rate of 1 L/min and maintained at 2.5% isoflurane.
Once unresponsive, the rat was held in an almost vertical position and radioactivity was administered through one nare at the back of the nasal cavity.
Rats were sacrificed by removal of the heart under isoflurane anaesthesia at 10 min following tail vein injection or 30 min following i.n. administration. Major organs were excised, washed with saline, weighed and counted in a gamma counter (LKB Wallac 1282), together with standards of the injection mixture. Organ uptake was calculated as percentage injected dose per gram [%ID/g] of tissue mass. Data are reported as mean ± SD.

Row | logD [2] | % specific binding, acumens nuclei (Acb) [3] [%] | % specific binding, anterior olfactory nucleus (AO) [3] [%] | % specific binding, central amygdala nucleus (ac) [3] [%] | % specific binding, hippocampus CA1 [3] [%] | % specific binding, motor cortex (MC) [3] [%] | % specific binding, olfactory tubercle (Tu) [3] [%] | % specific binding, subiculum (S) [3] [%] | % specific binding, visual cortex (V1) [3] [%] | tissue uptake at 0.5 h ([4]; uptake in brain parenchyma) [%ID/g] | tissue uptake at 0.5 h ([4]; uptake in cerebellum) [%ID/g] | tissue uptake at 0.5 h ([4]; uptake in kidneys) [%ID/g] | tissue uptake at 0.5 h ([4]; uptake in olfactory bulb) [%ID/g] | tissue uptake at 10 min ([4]; iv, uptake in brain parenchyma) [%ID/g] | tissue uptake at 10 min ([4]; iv, uptake in cerebellum) [%ID/g] | tissue uptake at 10 min ([4]; iv, uptake in kidneys) [%ID/g] | tissue uptake at 10 min ([4]; iv, uptake in olfactory bulb) [%ID/g] | brain permeable material ([4]; iv) | Compound | plasma half-life [1]
1 |  |  |  |  |  |  |  |  |  |  |  |  |  |  |  |  |  |  | CC[C@H](C)[C@@H]1NC(=O)[C@H](Cc2ccc(O)cc2)NC(=O)[C@@H](N)CSSC[C@@H](C(=O)N2CCC[C@H]2C(=O)N[C@@H](CC(C)C)C(=O)NCC(N)=O)NC(=O)[C@H](CC(N)=O)NC(=O)[C@H](CCC(N)=O)NC1=O [OTc, oxytocin] | approximately 3 min
2 | -0.54 | 43 ± 4 | 38 ± 2 | 56 ± 1 | 53 ± 4 | 42 ± 4 | 53 ± 5 | 60 ± 1 | 61 ± 4 | 0.11 ± 0.03 | 0.31 ± 0.26 | 1.31 ± 0.7 | 2.3 ± 1.8 | 0.05 ± 0.03 | 0.05 ± 0.01 | 4.6 ± 0.4 | 0.05 ± 0.02 | approximately 4.7 × 10^–2 %ID per g | CC[C@H](C)[C@@H]1NC(=O)[C@H](Cc2ccc(O)cc2)NC(=O)CCSSC[C@@H](C(=O)N2CCC[C@H]2C(=O)N[C@@H](CCCCNC(=O)Cc2ccc(CN3CCN(CC(=O)O)CCN(CC(=O)O)CC3)cc2)C(=O)NCC(N)=O)NC(=O)[C@H](CC(N)=O)NC(=O)[C@H](CCC(N)=O)NC1=O [[^18F]AlF-NODA-dLVT] ([Mpa]YIQNCPK(X1)G-NH2; disulfide 1-6) | 
